# According to patent publication US8653049B2, “Normuramyl glycopeptide compounds” (priority 2008, dated 2014):
# Entries after “also recorded” stand apart in the source; their conditions may differ.
# How the values were obtained:
# [1] = Survival after lethal irradiation (10 Gy); assay type: in vivo, mice (strain ICR); conditions: 200 nmol s.c. 24 h before 10 Gy; FIG. 37
# Method: Preparations (200 nmol of active substance) were applied to mice (strain ICR, female, 3 months of age, 10 mice per group) by s.c. route 24 h before irradiation (radiation dose of 10 Gy from a ^60Co gamma-ray source at a dose rate of 0.285 Gy/min). PBS and empty liposome served as negative controls, free and liposomal muramyl dipeptide (MDP) served as positive controls.
# [2] = tested on: NK sensitive K562 cell line; assay: NK cell cytotoxicity of human PBMC, 51Cr-release against K562; assay type: cell-based; conditions: for dose response of NK cell activity: range 0.1 μM-100 μM, FIG. 28
# Method: Ex vivo effects of test compounds on NK cells were evaluated on human peripheral blood mononuclear cells (PBMC). The NK cell cytotoxicity of healthy donors in the presence or absence of test compounds was measured in standard 4 hrs ^51Cr-release assay against NK sensitive K562 cell line in effector (PBMC) to target (K562) ratio 16:1. Test compounds were added at a concentration of 10^−7 mol/ml.
# Testing of compounds 23, 24, 32, 33, 40 and 41 for their capacity to induce cell-mediated cytotoxicity of human eripheral blood mononuclear cells (PBMCs) is shown in FIGS. 27 and 28. All donors were healthy. […] The cytotoxicity of untreated controls (30.5%) was renormalized to 100%.
# [3] = tested on: GM-CFC progenitors in bone marrow; assay: GM-CFC recovery, test compounds before sub-lethal irradiation; assay type: in vivo, ICR/CD-1 mice; conditions: s.c. 100 nmol 24 h before 6 Gy, day 13, FIGS. 33-35
# Method: (§1) Institite of Cancer Research (ICR/CD-1) mice (female, age of 3 months, 3-4 per group) were stimulated by s.c. administration of test compounds (volume of 200 μl, 100 nmol per dose) 24 h before sublethal γ-irradiation (6 Gy, ^60Co γray source Chisostat, Chirana Ltd., Czech Republic, at a dose of 0.285 Gy/min.). Mice were sacrified at day 13 and recovery of GM-CFC in femour was assayed by counting of colonies (CFC) formed after cultivation in medium. Non-irradiated mice were used as control for normal GM-CFC count in femour. PBS and empty liposomes were used as controls for spontaneous recovery. Liposomal MDP was used as reference standard.
# (§2) The following parameters of hemopoiesis were evaluated: • a) Blood leukocyte counts and bone marrow cellularity. Blood leukocytes (samples of blood drawn from an incision of the tail vein) and nucleated cell elements of the femoral bone marrow (femoral diaphyses flushed with saline) were estimated by means of Coulter Counter (Model ZN, Coulter Electronics). • b) Colony-forming cells in spleen. Endogenous spleen colony-forming units (E-CFUs) were measured on day 9 post the whole-body irradiation with 6.5 Gy (5 mice per group) according to Till and McCulloch. • c) GM-CFC progenitors in bone marrow. Femoral bone marrow cells were obtained from mice by flushing the femour with sterile IMDM medium. Harvested cells were calculated and diluted to 1.5×10^5 cells/ml and plated in triplicate in a semisolid environment created by plasma clot (Iscovess modification of Dulbecco's medium, 20% of fetal calf serum, 10% of colony-stimulating factor, 10% of citrate plasma, and CaCl2 1.5 mg/ml). The cultures were incubated for 7 days at 37° C. in 5% CO2. Colonies of at least 50 cells were scored at 40× magnification.
# Statistical significance between individual experimental groups of mice in hemopoietic parameters was calculated by one-way analysis of variance. The Newman-Keuls test for comparison of all pairs of columns and the Dunnett test for comparison of all columns with the control column were used in the analysis.
# [4] = rabbits, liposomal preparations s.c. 100 nmol/kg, 3 rabbits per group; passes if below 1.1° C.
# Method: The test was conducted in an authorised laboratory, ITEST plus s.r.o., Bilé Vchýnice 10, 533 13 Vápno u Prelouce, Czech Republic, according to guide-lines CL 2005.
# Rabbits (New Zeeland albino, 4-6 kg, 3 animals per group) were used for testing.
# Liposomal preparations of muramyl glycopeptide derivatives were administered s.c. (100 nmol/kg). Empty liposomes were used as negative control and the liposomal as well as the free form of muramyl dipeptide (MDP) (25 μg/kg, corresponding to 50.7 nmol/kg) served as positive control. Temperature was measured in 1, 2, 3, 4,6 and 24 hour intervals.
# Empty liposomes were used as negative control; and liposomal as well as free muramyl dipeptide (MDP) (50.7 nmol/kg) served as positive control. B30-norAbu-MDP (MT01, structure on page 5) served as additional control. Temperature was measured in 1, 2, 3, 4, 6 and 24 h intervals. The preparation passed the test if the Sum of ΔTmax remained below 1.1° C. (3 rabbits per group)
# [5] = tested on: r-hsp90 (Candida albicans hsp90) specific IgG antibodies; assay: Proteoliposome vaccine against C. albicans hsp90: antibody (humoral) response, ELISA; assay type: in vivo, BALB/c mice; conditions: Experiment 12.2; liposomal compound (5%) + Ni-HSP90, boost day 14; FIG. 13
# Method: (§3) Proteoliposomes were prepared by coupling recombinant hsp90 antigen (r-hsp90, 6×HISTag) via a metal chelating lipid to liposomes containing muramyl glycopeptide derivatives as adjuvant component. BALB/c […] mice 4 to 5 weeks old (female 20±2 g, 5 animal per group) were immunized by the intradermal route either with 20 μg of free or liposomal r-hsp90 (volume of 60 μl) either with or without L18-norAbu-MDP and boosted 21 days later by the same composition of experimental vaccine. FCA was used as positive control r-hsp90. Liposomal vaccine composition 20 μg of rHSP90 antigen, 5% metallochelating lipid, 5% particular MT analogue, 90% phospolipids.
# Blood samples were collected from the tail vein into heparinised capillary PCV tubes. After centrifugation, the upper part of the tube, containing […] blood serum, was cut off, thrown into […] diluting solution and thoroughly shaken. Thus, a basic dilution of 1:33 was obtained. The pre-diluted sera were kept at −20° C. Blood samples were collected before the first immunization, 2 weeks thereafter and subsequently at weekly intervals up to the 4th week after the second immunisation. Specific IgG antibodies in blood serum samples were determined by the standard indirect ELISA procedure. The data obtained were processed statistically using the non-parametric Mann-Whitney U-test.
# Proteoliposomes with muramyl glycopeptide derivatives were prepared as described above, but the boost was carried out already after 14 days. The liposomal vaccine composition was as for Experiment Set 1: 20 μg of rHSP90 antigen, 5% metallochelating lipid, 5% particular MT analogue, 90% phospolipids.
# Controls: Aluminum hydroxide (AlOH) and Freund complete adjuvans (FCA) were used as positive controls. PBS with empty liposomes was used as negative control (control). Humoral response was tested at day 14 after vaccination (post priming) and at day 20 after vaccination (post booster). Antibody titres were wer assayed by ELISA.
# [6] = tested on: NK-sensitive YAC1 target cells; assay: NK cell-mediated cytotoxicity of spleen mononuclear cells, 51Cr-release against YAC1; conditions: FLV-inoculated mice, day 16, 18 h incubation with YAC1; FIG. 26
# [7] = tested on: granulocyte-macrophage progenitor cells (GM-CFC); assay: Colony stimulating activity (CSA) of serum on GM-CFC; assay type: in vivo, mouse; conditions: liposomal compounds; FIG. 32
# Method: Determination of Colony stimulating activity (CSA) and co-stimulating activity (CoSA) in serum: Blood was taken at intervals from 5 to 48 h after injection of the test compounds, and the ability of the sera from treated mice to stimulate in vitro growth of colonies from granulocyte-macrophage progenitor cells (GM-CFC) was determined. CoSA was determined as the ability of tested compounds, sera of treated mice, or conditioned medium from cultures of adherent stromal cells to enhance the number of GM-CFC colonies induced by a sub-optimal concentration of rmIL-3 in the above-described GM-CFC assay. The concentration of rmIL-3 was adjusted to a value which yielded one third of the maximum number of colonies on a dose-dependent curve.
# Salmonella enteritidis = assay: Stimulation of innate immunity against Salmonella Enteritidis; conditions: for protective effect / survival rate in S. Enteritidis infection: 0 or 1 case of death by day 12; for Day 6 Intest.: clear/infected/dead / Day 6 Liver: clear/infected/dead / Day 6 Lungs: clear/infected/dead / Day 6 Spleen: clear/infected/dead / Day 12 Intest.: clear/infected/dead / Day 12 Liver: clear/infected/dead / Day 12 Lungs: clear/infected/dead / Day 12 Spleen: clear/infected/dead: liposomal, 20 nmol per dose p.o. 72 and 24 h before infection (LD50), 5 mice
# [8] = tested on: Friend leukemia virus (FLV); assay: Friend leukemia virus infection: survival, TER-119+ cells, spleen; conditions: day 16; FIG. 24
# [9] = tested on: IFN-γ production in splenocytes stimulated by rHSP90; assay: Proteoliposome vaccine against C. albicans hsp90: cellular response (IFN-γ in splenocytes stimulated by rHSP90); assay type: in vivo, BALB/c mice; conditions: Experiment 12.3; liposomal compound (5%) + Ni-HSP90, day 20; FIG. 14
# Method: as §3
# Production of INF-γ was mesured by standard ELISPOT assay (R&D, USA). Immunised mice were sacrified 4 weeks after booster imunisation and splenocytes were isolated, and stimulated by r-hsp90 (50 μg/ml) and spots were counted.
# Proteoliposomes with muramyl glycopeptide derivatives were prepared as described above. Experimental conditions were as for Experiment 12.2.
# Cell mediated immune response against rHSP90 antigen formulated in liposomal experimental vaccine was tested at day 20 (6 days after booster). Mice were sacrificed, splenocytes were purified and production of IFN-γ in splenocytes stimulated by rHSP90 was assayed by flow cytometry.
# [10] = tested on: GM-CFC progenitors in bone marrow; assay: GM-CFC recovery, test compounds after sub-lethal irradiation; assay type: in vivo, ICR/CD-1 mice; conditions: s.c. 100 nmol 24 h after 6 Gy; FIG. 36
# Method: as §1, §2
# The method is exactly as described above except that the test compounds (volume of 200 μl, 100 nmol per dose) were administered 24 h after sublethal γ-irradiation (6 Gy).
Compound,dose response of NK cell activity [2],+ΔTmax (Sum of ΔTmax) [4] [°C],antibody response to r-hsp90 proteoliposomes [5],NK cell activity (cell-mediated cytotoxicity of SMCs) [6],GM-CFC stimulating activity (CSA) in serum [7],protective effect / survival rate in S. Enteritidis infection (Salmonella enteritidis),Day 6 Intest.: clear/infected/dead (Salmonella enteritidis),Day 6 Liver: clear/infected/dead (Salmonella enteritidis),Day 6 Lungs: clear/infected/dead (Salmonella enteritidis),Day 6 Spleen: clear/infected/dead (Salmonella enteritidis),Day 12 Intest.: clear/infected/dead (Salmonella enteritidis),Day 12 Liver: clear/infected/dead (Salmonella enteritidis),Day 12 Lungs: clear/infected/dead (Salmonella enteritidis),Day 12 Spleen: clear/infected/dead (Salmonella enteritidis),other results
"CCCCCCCCCCCCCCCCCC(=O)NCCCC[C@H](NC(=O)CC[C@@H](NC(=O)[C@H](CC)NC(=O)CO[C@H]1[C@H](O)[C@@H](CO)OC(O)[C@@H]1NC(C)=O)C(N)=O)C(=O)O (stereo partly drawn) [Compound 32, N-[2-O-(2-Acetamido-2,3-dideoxy-α-D-glucopyranosid-3-yl)-glycoloyl]-L-α-aminobutanoyl-D-isoglutaminyl-L-lysine(stearoyl)]",negative dose response,0.5,strong and comparable to AlOH,stimulate NK cell functional activity,substantially better,good protective effects,5/0/0,3/2/0,4/1/0,3/2/0,2/3/0,1/4/0,4/1/0,1/4/0,"survival of lethally irradiated mice [1]: best compound; also recorded: best performance; lag time to reach full NK stimulating activity ([2]; no vs 18 h pre-incubation): most pronounced; GM-CFC progenitor cells in bone marrow [3]: strongest effect; GM-CFC progenitor cells in bone marrow ([3]; listed as compound 32): best compound; clonal expansion of TER-119+ erythroleukaemia cells in spleen [8]: dose-dependent, positive effect"
"CCCCCCCCCCCCCCC(CCCCCCCCCCCCCC)C(=O)NCCCC[C@H](NC(=O)CC[C@@H](NC(=O)[C@H](CC)NC(=O)CO[C@H]1[C@H](O)[C@@H](CO)OC(O)[C@@H]1NC(C)=O)C(N)=O)C(=O)O (stereo partly drawn) [Compound 33, N-[2-O-(2-Acetamido-2,3-dideoxy-α-D-glucopyranosid-3-yl)-glycoloyl]-L-α-aminobutanoyl-D-isoglutaminyl-L-lysine(2-tetradecylhexadecanoyl)]",positive dose response,0.4,strong and comparable to AlOH,"partially 33, had an inhibitory effect",no effect,good protective effects,5/0/0,5/0/0,5/0/0,2/3/0,2/2/1,1/3/1,2/2/1,1/3/1,cell-mediated response to r-hsp90 proteoliposomes [9]: good results; GM-CFC progenitor cells in bone marrow [10]: strongest performers
